This is an account of results in ChEMBL document CHEMBL4130456 (ACS Med Chem Lett, 2017).

Series [1] deals with Phosphatidylinositol 4,5-bisphosphate 3-kinase catalytic subunit alpha isoform (Homo sapiens, UniProt P42336). Put plainly: Inhibition of recombinant human myristoylated PI3Kalpha catalytic domain expressed in Rat1 cells assessed as reduction in Akt phosphorylation at […] residue after 1 hr by alpha screen Surefire assay. Format: cell-based. A general note: Bead proximity is the source of the signal in Alpha formats.
Phosphatidylinositol 4,5-bisphosphate 3-kinase catalytic subunit alpha isoform, sequence (P42336 whole entry, the tested form may be a part, canonical isoform): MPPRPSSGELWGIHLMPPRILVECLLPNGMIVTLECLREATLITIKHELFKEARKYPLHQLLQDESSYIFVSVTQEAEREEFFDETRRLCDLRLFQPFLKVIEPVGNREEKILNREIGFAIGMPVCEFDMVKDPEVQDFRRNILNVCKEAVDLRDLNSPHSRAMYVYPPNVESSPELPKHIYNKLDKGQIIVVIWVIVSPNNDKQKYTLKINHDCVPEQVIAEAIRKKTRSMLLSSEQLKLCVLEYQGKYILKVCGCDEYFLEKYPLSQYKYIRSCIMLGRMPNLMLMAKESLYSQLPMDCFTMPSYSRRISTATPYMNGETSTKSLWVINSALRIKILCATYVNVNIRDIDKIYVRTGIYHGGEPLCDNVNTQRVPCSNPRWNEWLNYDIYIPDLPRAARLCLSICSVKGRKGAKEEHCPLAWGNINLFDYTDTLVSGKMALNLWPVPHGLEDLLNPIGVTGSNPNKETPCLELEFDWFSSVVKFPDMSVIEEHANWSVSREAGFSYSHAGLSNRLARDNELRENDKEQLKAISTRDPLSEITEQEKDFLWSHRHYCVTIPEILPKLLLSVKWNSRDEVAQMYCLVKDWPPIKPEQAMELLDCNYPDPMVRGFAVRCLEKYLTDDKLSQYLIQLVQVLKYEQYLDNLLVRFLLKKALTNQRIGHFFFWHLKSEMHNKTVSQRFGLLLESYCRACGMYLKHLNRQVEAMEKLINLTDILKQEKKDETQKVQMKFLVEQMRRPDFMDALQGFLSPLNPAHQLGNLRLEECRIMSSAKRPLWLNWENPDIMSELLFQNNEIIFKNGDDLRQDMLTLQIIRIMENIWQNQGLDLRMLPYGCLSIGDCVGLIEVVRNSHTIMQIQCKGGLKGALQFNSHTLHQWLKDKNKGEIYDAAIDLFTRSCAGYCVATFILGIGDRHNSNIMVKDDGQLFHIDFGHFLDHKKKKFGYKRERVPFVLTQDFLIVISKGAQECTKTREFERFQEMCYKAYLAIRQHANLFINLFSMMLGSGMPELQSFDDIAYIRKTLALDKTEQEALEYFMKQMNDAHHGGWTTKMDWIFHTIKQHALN

Series [2] deals with 3',5'-cyclic-AMP phosphodiesterase 4D (Homo sapiens, UniProt Q08499). The series can be described thus: Inhibition of recombinant human PDE4D.
3',5'-cyclic-AMP phosphodiesterase 4D, sequence (Q08499 whole entry): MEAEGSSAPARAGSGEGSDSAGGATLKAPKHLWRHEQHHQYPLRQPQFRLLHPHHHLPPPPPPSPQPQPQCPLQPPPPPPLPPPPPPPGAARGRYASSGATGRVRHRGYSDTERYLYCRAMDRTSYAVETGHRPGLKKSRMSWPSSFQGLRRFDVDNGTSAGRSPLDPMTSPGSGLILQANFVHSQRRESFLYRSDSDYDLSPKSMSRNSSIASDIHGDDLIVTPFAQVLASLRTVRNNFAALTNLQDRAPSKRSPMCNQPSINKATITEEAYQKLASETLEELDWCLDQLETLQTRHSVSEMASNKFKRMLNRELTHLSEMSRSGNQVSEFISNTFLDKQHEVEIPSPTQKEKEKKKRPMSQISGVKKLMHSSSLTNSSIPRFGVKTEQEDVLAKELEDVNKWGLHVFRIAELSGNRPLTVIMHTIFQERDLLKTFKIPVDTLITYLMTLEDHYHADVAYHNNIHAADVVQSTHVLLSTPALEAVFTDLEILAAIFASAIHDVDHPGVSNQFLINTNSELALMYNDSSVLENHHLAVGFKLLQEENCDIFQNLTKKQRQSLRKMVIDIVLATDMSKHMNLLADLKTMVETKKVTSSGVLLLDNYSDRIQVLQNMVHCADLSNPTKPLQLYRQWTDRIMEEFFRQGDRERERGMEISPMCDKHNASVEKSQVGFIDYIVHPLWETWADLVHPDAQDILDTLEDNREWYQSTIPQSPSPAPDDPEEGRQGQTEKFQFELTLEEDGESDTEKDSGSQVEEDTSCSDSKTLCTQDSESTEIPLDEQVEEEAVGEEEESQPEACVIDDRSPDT
A short description of series [3]: Terminal half life in Beagle dog at 0.1 mg/kg, iv by RP-HPLC analysis. Particulars: in vivo, read-out: beta t1/2 (converted). The class given is ADME, organism-based, Canis lupus familiaris.

One may read the IC50 as the midpoint of a concentration-inhibition curve. Consider `CCC(=O)N1CC[C@H](Nc2ncnc3c2CN(c2cnc(OC)c(C(F)(F)F)c2)CC3)C1` [LENIOLISIB], for which the half-inhibitory concentration (IC50) came out at 1.67 µM in series [1] and 4.7 µM in series [2]. In addition, the half-life in series [3] was 1.5 h.
